Test results published in patent US5885986A, “Oxazolyl- and thiazolylimidazo-benzo- and thienodiazepines and their use as medicaments” (Hoffmann-La Roche Inc., priority 1994, dated 1999).
Where two headings read alike, the source gives them in different places.

Assays:
[1] = rotating rod test (sedative/muscle relaxant properties); format: in vivo, mice; conditions: Mus musculus, iv, i.v., read-out: Rotating rod test, ED550
Method: The sedative/muscle relaxant properties of the compounds of formula I in accordance with the invention can be determined, for example, in the rotating rod test. Mice weighing 19-21 g are used for this test. They have free access to feed and drinking water up to 1 h before the beginning of the test. They are brought into the test laboratory at least 30 min. before the test. In the rotating rod test the animals are placed on a horizontally arranged, smooth metal rod having a diameter of 3 cm, which is rotated at 2 revolutions per min. Initially, the animals are given the opportunity of familiarizing themselves with the test situation for 30 sec. Subsequently, those animals which succeed in remaining on the rod for at least 1 min. are selected. These animals are then given the test preparations intravenously in different dosages. At various points in time it is then determined whether the animals are able to remain on the rod for a minimum period (minimum period: 10 sec.; from 5 min. after administration: 1 min.). That dosage at which 50% of the animals are capable of remaining on the rod (ED50) is determined.

[2] = target: central benzodiazepine receptors; assay: inhibition of the binding of tritiated flumazenil to the specific benzodiazepine receptors in the cortex of rats; conditions: read-out: Affinity to benzodiazepine receptors IC50
Method: The affinity of compounds of general formula I to the central benzodiazepine receptors has been established in vitro according to the methods described in Nature 294, 763-765 (1981) and J. Neurochemistry 37, 714-722 (1981). According to these methods, the inhibition of the binding of tritiated flumazenil to the specific benzodiazepine receptors in the cortex of rats by the respective test substances is determined. The IC50 ("50% inhibiting concentration") denotes that concentration of the respective test substance which brings about a 50 percent inhibition of the specific binding of tritiated flumazenil to the specific benzodiazepine receptors in the cortex of rats.

[3] = 15 s, 15 sec after administration
[4] = 0.5 min, 30 sec after administration
[5] = 1 min, 60 sec after administration
[6] = 2 min, 2 min after administration
[7] = 5 min, 5 min after administration
[8] = 0.25 h, 15 min after administration
[9] = 0.5 h, 30 min after administration
[10] = 1 h, 60 min after administration

Row | SMILES | ED50 [1, 3] | ED50 [1, 4] | ED50 [1, 5] | ED50 [1, 6] | ED50 [1, 7] | ED50 [1, 8] | ED50 [1, 9] | ED50 [1, 10] | IC50 [2]
1 | CCCN(CCC)Cc1cnc(-c2ncn3c2CN(C)C(=O)c2c(Cl)cccc2-3)o1 [G, 7-chloro-3-(5-dipropylaminomethyl-oxazol-2-yl)-5-methyl-5,6-dihydro-4H-imidazo[1,5-a][1,4]benzodiazepin-6-one] | 1 mg/kg | 1.2 mg/kg | 1.8 mg/kg | 2.1 mg/kg | 3 mg/kg | 3.4 mg/kg | 5.6 mg/kg | > 10 mg/kg | 4 nM
2 | CCCN(CCC)Cc1csc(-c2ncn3c2CN(C)C(=O)c2c(Cl)cccc2-3)n1 [J, 7-chloro-3-(4-dipropylaminomethyl-thiazol-2-yl)-5-methyl-5,6-dihydro-4H-imidazo[1,5-a][1,4]benzodiazepin-6-one] | 0.7 mg/kg | 0.9 mg/kg | 2.3 mg/kg | ≥ 10 mg/kg | ≥ 10 mg/kg | > 10 mg/kg | > 10 mg/kg | > 10 mg/kg | 5.2 nM
3 | CCCN(CCC)Cc1coc(-c2ncn3c2CN(C)C(=O)c2c(Cl)cccc2-3)n1 [M, 7-chloro-3-(4-dipropylaminomethyl-oxazol-2-yl)-5-methyl-5,6-dihydro-4H-imidazo[1,5-a][1,4]benzodiazepin-6-one] | 0.4 mg/kg | 1 mg/kg | 1.2 mg/kg | 3 mg/kg | 3.7 mg/kg | 8.8 mg/kg | ≥ 10 mg/kg | > 10 mg/kg | 15 nM
4 | CCCN(CCC)Cc1cnc(-c2ncn3c2CN(C)C(=O)c2c-3ccc(F)c2Cl)o1 [C, 7-chloro-3-(5-dipropylaminomethyl-oxazol-2-yl)-8-fluoro-5-methyl-5,6-dihydro-4H-imidazo[1,5-a][1,4]benzodiazepin-6-one] | 0.3 mg/kg | 0.3 mg/kg | 0.5 mg/kg | 0.7 mg/kg | 1.6 mg/kg | 2 mg/kg | > 10 mg/kg | ≥ 10 mg/kg | 7 nM
5 | CCCCN(CCCC)Cc1cnc(-c2ncn3c2CN(C)C(=O)c2cc(F)ccc2-3)o1 [H, 3-(5-dibutylaminomethyl-oxazol-2-yl)-8-fluoro-5-methyl-5,6-dihydro-4H-imidazo[1,5-a][1,4]benzodiazepin-6-one] | 1.1 mg/kg | 1.1 mg/kg | 1.2 mg/kg | 2.1 mg/kg | 3.4 mg/kg | ≥ 10 mg/kg | > 10 mg/kg | > 10 mg/kg | 35 nM
6 | CCCN(CCC)Cc1csc(-c2ncn3c2[C@@H]2CCN2C(=O)c2c(Cl)cccc2-3)n1 [E, (S)-8-chloro-1-(4-dipropylaminomethyl-thiazol-2-yl)-12,12a-dihydro-9H,11H-azeto[2,1-c]imidazo[1,5-a][1,4]benzodiazepin-9-one] | 0.3 mg/kg | 0.3 mg/kg | 0.3 mg/kg | 0.9 mg/kg | 1 mg/kg | 3.2 mg/kg | ≥ 10 mg/kg | > 10 mg/kg | 11 nM
7 | CCCN(CCC)Cc1cnc(-c2ncn3c2CN(C)C(=O)c2ccccc2-3)o1 [F, 3-(5-dipropylaminomethyl-oxazol-2-yl)-5-methyl-5,6-dihydro-4H-imidazo[1,5-a][1,4]benzodiazepin-6-one] | 1.7 mg/kg | 3.9 mg/kg | 4.7 mg/kg | ≥ 10 mg/kg | ≥ 10 mg/kg | > 10 mg/kg | > 10 mg/kg | > 10 mg/kg | 66 nM
8 | CCCN(CCC)Cc1cnc(-c2ncn3c2CN(C)C(=O)c2cc(F)ccc2-3)o1 [B, 3-(5-dipropylaminomethyl-oxazol-2-yl)-8-fluoro-5-methyl-5,6-dihydro-4H-imidazo[1,5-a][1,4]benzodiazepin-6-one] | 0.3 mg/kg | 0.5 mg/kg | 0.7 mg/kg | 1.6 mg/kg | 2.6 mg/kg | 4.9 mg/kg | > 10 mg/kg | > 10 mg/kg | 59 nM
9 | CCCN(CCC)Cc1cnc(-c2ncn3c2[C@@H]2CCN2C(=O)c2sccc2-3)o1 [D, (S)-1-(5-dipropylaminomethyl-oxazol-2-yl)-11,11a-dihydro-8H,10H-azeto[1,2-a]imidazo[5,1-c]thieno[3,2-e][1,4]diazepin-8-one] | 0.1 mg/kg | 0.2 mg/kg | 0.4 mg/kg | 0.5 mg/kg | 1.8 mg/kg | 3.6 mg/kg | > 10 mg/kg | > 10 mg/kg | 7 nM
10 | CCCN(CCC)Cc1csc(-c2ncn3c2[C@@H]2CCCN2C(=O)c2c(Cl)cccc2-3)n1 [K, (S)-8-chloro-1-(4-dipropylaminomethyl-thiazol-2-yl)-11,12,13,13a-tetrahydro-9H-imidazo[1,5-a]pyrrolo[2,1-c][1,4]benzodiazepin-9-one] | 1.8 mg/kg | 1.8 mg/kg | 5.6 mg/kg | 3.7 mg/kg | 5.6 mg/kg | ≥ 10 mg/kg | ≥ 10 mg/kg | > 10 mg/kg | 15 nM
11 | CCCN(CCC)Cc1csc(-c2ncn3c2CN(C)C(=O)c2c-3ccc(F)c2Cl)n1 [L, 7-chloro-3-(4-dipropylaminomethyl-thiazol-2-yl)-8-fluoro-5-methyl-5,6-dihydro-4H-imidazo[1,5-a][1,4]benzodiazepin-6-one] | 1.1 mg/kg | 1.1 mg/kg | 1.1 mg/kg | 2.8 mg/kg | 4.7 mg/kg | 5.7 mg/kg | ≥ 10 mg/kg | > 10 mg/kg | 16 nM
12 | CCCN(CCC)Cc1cnc(-c2ncn3c2CN(C)C(=O)c2sccc2-3)o1 [I, 3-(5-dipropylaminomethyl-oxazol-2-yl)-5-methyl-5,6-dihydro-4H-imidazo[1,5-a]thieno[2,3-f][1,4]diazepin-6-one] | 1.8 mg/kg | 1.7 mg/kg | 3.4 mg/kg | 3.9 mg/kg | 8.7 mg/kg | > 10 mg/kg | > 10 mg/kg | > 10 mg/kg | 17 nM
13 | CCCN(CCC)Cc1cnc(-c2ncn3c2[C@@H]2CCN2C(=O)c2c(Cl)cccc2-3)o1 [A, (S)-8-chloro-1-(5-dipropylaminomethyl-oxazol-2-yl)-12,12a-dihydro-9H,11H-azeto[2,1-c]imidazo[1,5-a][1,4]benzodiazepin-9-one] | 0.3 mg/kg | 0.4 mg/kg | 0.6 mg/kg | 1.1 mg/kg | 1.8 mg/kg | > 10 mg/kg | > 10 mg/kg | > 10 mg/kg | 32 nM
